By melting point is commonly meant the temperature of the solid-liquid transition. Compound `CN(C1CCNCC1)S(=O)(=O)c1ccc(Nc2nccc(-c3ccc(F)cc3)n2)cc1` [Example 4, 4-[4-(4-Fluorophenyl)pyrimidin-2-ylamino]-N-methyl-N-(piperidin-4-yl)benzenesulphonamide] showed a melting point of 115.6 °C.

`NCCN(C1CCN(Cc2ccccc2)CC1)S(=O)(=O)c1ccc(Nc2nccc(-c3ccc(F)cc3)n2)cc1` [Example 5, N-(2-Aminoethyl)-N-(1-benzylpiperidin-4-yl)-4-[4-(4-fluorophenyl)-pyrimidin-2-ylamino]benzenesulphonamide] returned a melting point of 194.4 °C.

Compound `CN(Cc1ncc[nH]1)C1CCN(S(=O)(=O)c2ccc(Nc3nccc(-c4ccc(F)cc4)n3)cc2)CC1` [Example 3, [4-(4-Fluorophenyl)pyrimidin-2-yl]-(4-{4-[(1H-imidazol-2-ylmethyl) (methyl)amino]piperidin-1-ylsulphonyl}phenyl) amine] came in with a melting point of 140 °C.

`CNC1CCN(S(=O)(=O)c2ccc(Nc3nccc(-c4ccc(F)cc4)n3)cc2)CC1` [Example 1, [4-(4-Fluorophenyl)pyrimidin-2-yl][4-(4-(methylamino)piperidin-1-ylsulphonyl)phenyl]amine] gave a melting point of 202.9 °C.

For `CN(CCS(C)(=O)=O)C1CCN(S(=O)(=O)c2ccc(Nc3nccc(-c4ccc(F)cc4)n3)cc2)CC1` [Example 2, [4-(4-Fluorophenyl)pyrimidin-2-yl]-(4-{4-[(2-(methylsulphonyl)ethyl)(methyl)amino]piperidin-1-ylsulphonyl}phenyl)amine], the melting point worked out at 166.5 °C.

These data come from patent US20100069417A1, “NOVEL PHENYL(4-PHENYLPYRIMIDIN-2-YL)AMINE DERIVATIVES, THEIR PREPARATION, AS MEDICAMENTS, PHARMACEUTICAL COMPOSITIONS AND IN PARTICULAR AS IKK INHIBITORS” (SANOFI-AVENTIS, priority 2007, published 2010).
